Measurements from the supplement of paper PMC10307832.

Legend:
Test in all cases: relative viability (nuclei count vs DMSO), 5 days (fraction); higher = more cells survive
[1] = compound: CC(O)(CS(=O)(=O)c1ccc(F)cc1)C(=O)Nc1ccc(C#N)c(C(F)(F)F)c1 [Bicalutamide] + Cc1cc(Nc2cc(N3CCN(C)CC3)nc(Sc3ccc(NC(=O)C4CC4)cc3)n2)n[nH]1 [Tozasertib] (partner 0.1 µM)
Procedure, shortened: (§1)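 A single step with final 0.05% Triton X-100, 1% formaldehyde and 1 ug/ml Hoechst fixed the cells and stained nuclei 5 days after treatment. Lung cancer cell lines in 1536-well plates had been treated by pin tool the day after seeding with one drug alone or a fixed anchor-drug dose plus five library-drug doses (not always all listed) in √10 steps, and nuclei were counted on 4× images. Relative viability is the ratio of nuclei in treated wells to nuclei in vehicle wells, taken as the median of duplicate plates.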

[2] = compound: C(C(=O)C(=O)O)Br [Bromopyruvate] + COc1cc2c(Oc3ccc(NC(=O)C4(C(=O)Nc5ccc(F)cc5)CC4)cc3F)ccnc2cc1OCCCN1CCOCC1 [Foretinib] (partner 0.25 µM)
Procedure, shortened: as §1

[3] = compound: C(C(=O)C(=O)O)Br [Bromopyruvate] + CS(=O)(=O)N1CCN(Cc2cc3nc(-c4cccc5[nH]ncc45)nc(N4CCOCC4)c3s2)CC1 [Pictilisib] (partner 1 µM)
Procedure, shortened: as §1

Bicalutamide + Olaparib = compound: CC(O)(CS(=O)(=O)c1ccc(F)cc1)C(=O)Nc1ccc(C#N)c(C(F)(F)F)c1 [Bicalutamide] + O=C(c1cc(Cc2n[nH]c(=O)c3ccccc23)ccc1F)N1CCN(C(=O)C2CC2)CC1 [Olaparib] (partner 8 µM)
Procedure, shortened: as §1

Cell Line | relative viability ([1]; first compound 0.08 µM) | relative viability ([1]; first compound 0.253 µM) | relative viability ([1]; first compound 0.8 µM) | relative viability ([1]; first compound 2.53 µM) | relative viability ([2]; first compound 1 µM) | relative viability ([2]; first compound 3.162 µM) | relative viability ([2]; first compound 10 µM) | relative viability ([2]; first compound 31.62 µM) | relative viability ([2]; first compound 100 µM) | relative viability ([3]; first compound 1 µM) | relative viability ([3]; first compound 3.162 µM) | relative viability ([3]; first compound 10 µM) | relative viability ([3]; first compound 31.62 µM) | relative viability ([3]; first compound 100 µM) | relative viability (Bicalutamide + Olaparib; first compound 0.08 µM) | relative viability (Bicalutamide + Olaparib; first compound 0.253 µM) | relative viability (Bicalutamide + Olaparib; first compound 0.8 µM) | relative viability (Bicalutamide + Olaparib; first compound 2.53 µM)
LC-2-ad | 0.465 | 0.429 | 0.552 | 0.505 | 0.922 | 0.99 | 1.01 | 0.914 | 0.988 | 0.477 | 0.494 | 0.513 | 0.572 | 0.548 | 0.758 | 0.713 | 0.683 | 0.697
COR-L 105 | 0.391 | 0.348 | 0.408 | 0.387 | 0.924 | 1.18 | 0.995 | 1.08 | 0.616 | 0.524 | 0.371 | 0.361 | 0.434 | 0.379 | 0.847 | 0.777 | 0.632 | 0.662
NCI-H1355 | 0.613 | 0.499 | 0.658 | 0.462 | 0.954 | 0.966 | 1.08 | 0.909 | 0.995 | 0.43 | 0.438 | 0.466 | 0.577 | 0.422 | 0.711 | 0.696 | 0.848 | 0.668
H3255 | 0.743 | 0.439 |  | 0.604 | 0.902 | 0.806 | 0.93 | 0.938 | 0.922 | 0.479 | 0.503 | 0.45 | 0.519 | 0.588 | 0.564 | 0.558 | 0.554 | 0.551
NCI-H2009 | 0.777 | 0.664 | 0.723 | 0.649 | 1.22 | 1.25 | 1.19 | 1.2 | 0.883 | 0.764 | 0.831 | 0.742 | 0.709 | 0.613 | 0.675 | 0.702 | 0.715 | 0.667
NCI-H1734 | 0.249 | 0.244 | 0.268 | 0.279 | 0.888 | 0.923 | 1.03 | 0.807 | 0.824 | 0.493 | 0.486 | 0.542 | 0.551 | 0.451 | 0.623 | 0.546 | 0.685 | 0.606
HOP-62 | 0.419 | 0.402 | 0.425 | 0.34 | 1.12 | 1.17 | 1.12 | 0.95 | 0.815 | 0.71 | 0.889 |  | 0.836 | 0.988 | 0.736 | 0.38 | 0.388 | 0.349
LOU-NH91 | 0.696 | 0.516 | 0.798 | 0.662 | 0.945 | 0.903 | 0.999 | 0.92 | 0.984 | 0.588 | 0.548 | 0.48 | 0.516 | 0.589 | 0.899 | 0.847 | 0.976 | 0.955
ChaGo-K-1 | 0.219 | 0.238 | 0.212 | 0.292 | 0.898 | 0.937 | 1.15 | 1.02 | 0.998 | 0.978 | 0.766 | 0.581 | 0.685 | 0.622 | 0.4 | 0.423 | 0.466 | 0.446
NCI-H23 | 0.371 | 0.322 | 0.375 | 0.374 | 0.895 | 0.851 | 0.983 | 0.885 | 0.296 | 0.448 | 0.535 | 0.433 | 0.502 | 0.409 | 0.342 | 0.3 | 0.323 | 0.341
PC-3 [JPC-3] | 0.926 | 0.903 | 0.952 | 0.893 | 1.16 | 1.03 | 1.12 | 0.976 | 1.03 | 0.775 | 0.724 | 0.731 | 0.694 | 0.733 | 1.22 | 1.09 | 1.16 | 1.24
NCI-H1437 | 0.399 | 0.423 | 0.448 | 0.403 | 1.26 | 1.28 | 1.27 | 1.28 | 1.25 | 0.464 | 0.502 | 0.47 | 0.413 | 0.496 | 0.613 | 0.614 | 0.63 | 0.613
NCI-H520 | 0.433 | 0.414 | 0.539 | 0.458 | 0.83 | 0.805 | 0.646 | 0.859 | 0.895 | 0.264 | 0.34 | 0.337 | 0.293 | 0.317 | 0.342 | 0.31 | 0.335 | 0.337
NCI-H1666 | 0.6 | 0.562 | 0.625 | 0.597 | 0.994 | 1.05 | 1.03 | 1 | 0.936 | 0.43 | 0.418 | 0.567 | 0.558 | 0.531 | 0.733 | 0.814 | 0.728 | 0.744
NCI-H1651 | 0.761 | 0.658 | 0.66 | 0.632 | 0.728 | 0.902 | 0.904 | 0.849 | 0.91 | 0.516 | 0.539 | 0.69 | 0.594 | 0.549 | 0.203 | 0.167 | 0.192 | 0.181
NCI-H1755 | 0.458 | 0.625 | 0.576 | 0.599 | 0.936 | 0.923 | 0.925 | 0.909 | 0.937 | 0.484 | 0.512 | 0.448 | 0.467 | 0.456 | 0.87 | 0.817 | 0.901 | 0.857
NCI-H727 | 0.615 | 0.619 | 0.591 | 0.603 | 0.9 | 1.08 | 0.728 | 0.93 | 0.802 | 0.359 | 0.417 | 0.604 | 0.389 | 0.339 | 0.895 | 0.678 | 0.614 | 0.732
HARA | 0.128 | 0.099 | 0.103 | 0.182 | 0.91 | 0.868 | 0.984 | 0.824 | 0.93 | 0.276 | 0.47 | 0.332 | 0.485 | 0.449 | 0.871 |  | 1.22 | 0.878
NCI-H647 | 0.3 | 0.264 | 0.293 | 0.191 | 1.26 | 1.2 | 1.31 | 1.21 | 1.06 | 0.433 | 0.421 | 0.393 | 0.474 | 0.455 | 0.571 | 0.384 | 0.591 | 0.381
NCI-H2347 | 0.625 | 0.511 | 0.597 | 0.504 | 0.925 | 1.01 | 1.22 | 0.721 | 0.982 | 0.899 | 0.478 | 0.737 | 0.541 | 0.677 | 0.518 | 0.555 | 0.62 | 0.54
LCLC-97TM1 | 0.212 | 0.186 | 0.296 | 0.231 | 0.843 | 0.916 | 0.917 | 0.965 | 1.02 |  |  | 0.244 | 0.191 | 0.183 | 0.356 | 0.363 | 0.434 | 0.507
EPLC-272H | 0.238 | 0.224 | 0.25 | 0.237 | 0.777 | 0.718 | 0.81 | 0.688 | 0.888 | 0.32 | 0.363 | 0.266 | 0.323 | 0.296 | 0.791 | 0.699 | 0.695 | 0.682
NCI-H1915 | 0.434 | 0.447 | 0.491 | 0.381 | 1.03 | 1.08 | 1.09 | 1 | 1.12 | 0.95 | 0.934 | 0.9 | 0.955 | 0.897 | 0.25 | 0.232 | 0.29 | 0.254
NCI-H3122 | 0.422 | 0.408 | 0.445 | 0.44 | 0.985 | 1.04 | 1.01 | 0.915 | 0.917 | 0.553 | 0.664 | 0.879 | 0.554 | 0.567 | 0.536 | 0.657 | 0.712 | 0.617
NCI-H441 | 0.496 | 0.689 | 0.631 | 0.585 | 1.08 | 1.02 | 0.986 | 0.984 | 0.947 | 0.428 | 0.543 | 0.498 | 0.466 | 0.571 | 0.639 | 0.609 | 0.626 | 0.481
NCI-H2170 | 0.728 | 0.696 | 0.716 | 0.739 | 0.961 | 1.01 | 1.07 | 0.995 | 0.966 | 0.435 | 0.367 | 0.274 | 0.319 | 0.306 | 0.612 | 0.572 | 0.536 | 0.645
NCI-H1395 | 0.829 | 0.736 | 0.827 | 0.696 | 0.975 | 0.838 | 1.14 | 1.03 | 1.01 | 0.556 | 0.561 | 0.568 | 0.629 | 0.615 | 0.449 | 0.483 | 0.466 | 0.429
NCI-H358 | 0.136 | 0.108 | 0.108 | 0.105 | 0.764 | 0.71 | 0.761 | 0.598 | 0.653 | 0.342 | 0.397 | 0.343 | 0.326 | 0.328 | 0.664 | 0.519 | 0.706 | 0.595
PC-14 | 0.643 | 0.616 | 0.744 | 0.588 | 0.945 | 0.939 | 1.02 | 0.848 | 0.981 | 0.714 | 0.692 | 0.898 | 0.808 | 0.611 | 0.346 | 0.3 | 0.274 | 0.271
CAL-12T | 0.267 | 0.332 | 0.324 | 0.373 | 1.14 | 1.05 | 1.09 | 1.07 | 1.06 | 0.431 | 0.394 | 0.534 | 0.309 | 0.569 | 0.753 | 0.711 | 0.769 | 0.63
